Reference: patent US20230041563A1, “N-(1,3,4-OXADIAZOL-2-YL)ARYLCARBOXAMIDES OR SALTS THEREOF, PREPARATION METHODS, HERBICIDAL COMPOSITIONS AND USES THEREOF” (priority 2018, published 2023)

How the values were obtained:
Test in all cases: Weeding effect in post-emergence stage (greenhouse pot spray)
Assay type in all cases: in vivo
Digitaria sanguinalis = system: Digitaria sanguinalis
Excerpt: (§1) The activity level criteria for plant damage (i.e., growth control rate) are as follows:
(§2) The above growth control rates are fresh weight control rates.
(§3) Experiment on weeding effect in post-emergence stage: monocotyledonous and dicotyledonous weed seeds (Descurainia sophia, Capsella bursa-pastoris, Abutilon theophrasti, Galium aparine, Stellaria media, Lithospermum arvense, rorippa indica, Alopecurus aequalis, Beckmannia syzigachne, Sclerochloa dura, Phleum paniculatum, Bromus japonicus, Aegilops tauschii, Phalaris arundinacea, Amaranthus retroflexus, Chenopodiaceae, Commelina communis, Sonchus arvensis, convolvulus arvensis, Cirsium setosum, Solanum nigrum, Acalypha australis, Digitaria sanguinalis, Echinochloa crusgalli, Setaria viridis, Setaria glauca, Leptochloa chinensis, Monochoria vaginalis, Sagittaria trifolia, Scirpus juncoides, Cyperus rotundus, Cyperus iria, Cyperus difformis, Fimbristylis, Portulaca oleracea, Xanthium sibiricum, Pharbitis nil) and major crop seeds (wheat, corn, rice, soybean, cotton, oilseed rape, millet, sorghum, potato, sesame, ricinus) were placed in plastic pots filled with soil, then covered with 0.5-2 cm of soil, allowed to grow in a good greenhouse environment. After 2 weeks of sowing, the test plants were treated in the 2 to 3 leaf stage. The tested compounds of the present invention were respectively dissolved in acetone, then added with Tween 80 and 1.5 liter/ha of emulsifiable concentrate of methyl oleate as synergist, diluted with a certain amount of water to obtain a solution with a certain concentration, and sprayed with a spray tower onto the plants. After the application, the plants were cultured for 3 weeks in the greenhouse, and then the experimental results of the weeding were counted. […]

Echinochloa crusgalli = system: Echinochloa crusgalli
Excerpt: as §1, §2, §3

Setaria viridis = system: Setaria viridis
Excerpt: as §1, §2, §3

Cc1nnc(NC(=O)c2ccc(C(F)(F)F)c([S@+](C)[O-])c2F)o1 [1-2 (R-configuration)]
Digitaria sanguinahs (activity level) (Digitaria sanguinalis; Table 3, dose 7.5 g a.i./ha): 0 (Level 0: growth control rate is less than 5%) | Digitaria sanguinahs (activity level) (Digitaria sanguinalis; Table 3, dose 15 g a.i./ha): 1 (Level 1: growth control rate is greater than or equal to 5% and less than 20%) | Digitaria sanguinahs (activity level) (Digitaria sanguinalis; Table 3, dose 30 g a.i./ha): 3 (Level 3: growth control rate is greater than or equal to 40% and less than 60%) | Digitaria sanguinahs (activity level) (Digitaria sanguinalis; Table 3, dose 60 g a.i./ha): 4 (Level 4: growth control rate is greater than or equal to 60% and less than 85%) | Echinochloa crusgali (activity level) (Echinochloa crusgalli; Table 3, dose 7.5 g a.i./ha): 0 (Level 0: growth control rate is less than 5%) | Echinochloa crusgali (activity level) (Echinochloa crusgalli; Table 3, dose 15 g a.i./ha): 1 (Level 1: growth control rate is greater than or equal to 5% and less than 20%) | Echinochloa crusgali (activity level) (Echinochloa crusgalli; Table 3, dose 30 g a.i./ha): 3 (Level 3: growth control rate is greater than or equal to 40% and less than 60%) | Echinochloa crusgali (activity level) (Echinochloa crusgalli; Table 3, dose 60 g a.i./ha): 4 (Level 4: growth control rate is greater than or equal to 60% and less than 85%) | Setaria viridis (activity level) (Setaria viridis; Table 3, dose 7.5 g a.i./ha): 0 (Level 0: growth control rate is less than 5%) | Setaria viridis (activity level) (Setaria viridis; Table 3, dose 15 g a.i./ha): 2 (Level 2: growth control rate is greater than or equal to 20% and less than 40%) | Setaria viridis (activity level) (Setaria viridis; Table 3, dose 30 g a.i./ha): 3 (Level 3: growth control rate is greater than or equal to 40% and less than 60%) | Setaria viridis (activity level) (Setaria viridis; Table 3, dose 60 g a.i./ha): 3 (Level 3: growth control rate is greater than or equal to 40% and less than 60%)

CC[S@+]([O-])c1c(C(F)(F)F)ccc(C(=O)Nc2nnc(C)o2)c1F [1-5 (R-configuration)]
Digitaria sanguinahs (activity level) (Digitaria sanguinalis; Table 3, dose 3.75 g a.i./ha): 3 (Level 3: growth control rate is greater than or equal to 40% and less than 60%) | Digitaria sanguinahs (activity level) (Digitaria sanguinalis; Table 3, dose 7.5 g a.i./ha): 4 (Level 4: growth control rate is greater than or equal to 60% and less than 85%) | Digitaria sanguinahs (activity level) (Digitaria sanguinalis; Table 3, dose 15 g a.i./ha): 5 (Level 5: growth control rate is above 85%) | Digitaria sanguinahs (activity level) (Digitaria sanguinalis; Table 3, dose 30 g a.i./ha): 5 (Level 5: growth control rate is above 85%) | Digitaria sanguinahs (activity level) (Digitaria sanguinalis; Table 3, dose 60 g a.i./ha): 5 (Level 5: growth control rate is above 85%) | Echinochloa crusgali (activity level) (Echinochloa crusgalli; Table 3, dose 3.75 g a.i./ha): 4 (Level 4: growth control rate is greater than or equal to 60% and less than 85%) | Echinochloa crusgali (activity level) (Echinochloa crusgalli; Table 3, dose 7.5 g a.i./ha): 5 (Level 5: growth control rate is above 85%) | Echinochloa crusgali (activity level) (Echinochloa crusgalli; Table 3, dose 15 g a.i./ha): 5 (Level 5: growth control rate is above 85%) | Echinochloa crusgali (activity level) (Echinochloa crusgalli; Table 3, dose 30 g a.i./ha): 5 (Level 5: growth control rate is above 85%) | Echinochloa crusgali (activity level) (Echinochloa crusgalli; Table 3, dose 60 g a.i./ha): 5 (Level 5: growth control rate is above 85%) | Setaria viridis (activity level) (Setaria viridis; Table 3, dose 3.75 g a.i./ha): 3 (Level 3: growth control rate is greater than or equal to 40% and less than 60%) | Setaria viridis (activity level) (Setaria viridis; Table 3, dose 7.5 g a.i./ha): 4 (Level 4: growth control rate is greater than or equal to 60% and less than 85%) | Setaria viridis (activity level) (Setaria viridis; Table 3, dose 15 g a.i./ha): 5 (Level 5: growth control rate is above 85%) | Setaria viridis (activity level) (Setaria viridis; Table 3, dose 30 g a.i./ha): 5 (Level 5: growth control rate is above 85%) | Setaria viridis (activity level) (Setaria viridis; Table 3, dose 60 g a.i./ha): 5 (Level 5: growth control rate is above 85%)

COCC[S@+]([O-])c1c(C(F)(F)F)ccc(C(=O)Nc2nnc(C)o2)c1F [1-57 (R-configuration)]
Digitaria sanguinahs (activity level) (Digitaria sanguinalis; Table 3, dose 125 g a.i./ha): 5 (Level 5: growth control rate is above 85%) | Echinochloa crusgali (activity level) (Echinochloa crusgalli; Table 3, dose 125 g a.i./ha): 5 (Level 5: growth control rate is above 85%) | Setaria viridis (activity level) (Setaria viridis; Table 3, dose 125 g a.i./ha): 5 (Level 5: growth control rate is above 85%)

Cc1nnc(NC(=O)c2ccc(C(F)(F)F)c([S@+]([O-])CC(C)(C)C)c2F)o1 [1-392 (R-configuration)]
Digitaria sanguinahs (activity level) (Digitaria sanguinalis; Table 3, dose 500 g a.i./ha): 5 (Level 5: growth control rate is above 85%) | Echinochloa crusgali (activity level) (Echinochloa crusgalli; Table 3, dose 500 g a.i./ha): 5 (Level 5: growth control rate is above 85%) | Setaria viridis (activity level) (Setaria viridis; Table 3, dose 500 g a.i./ha): 5 (Level 5: growth control rate is above 85%)

Cc1nnc(NC(=O)c2ccc(C(F)(F)F)c([S@@+]([O-])CCC3CC3)c2F)o1 [1-395 (R-configuration)]
Digitaria sanguinahs (activity level) (Digitaria sanguinalis; Table 3, dose 500 g a.i./ha): 5 (Level 5: growth control rate is above 85%) | Echinochloa crusgali (activity level) (Echinochloa crusgalli; Table 3, dose 500 g a.i./ha): 5 (Level 5: growth control rate is above 85%) | Setaria viridis (activity level) (Setaria viridis; Table 3, dose 500 g a.i./ha): 5 (Level 5: growth control rate is above 85%)

C=CCC[S@+]([O-])c1c(C(F)(F)F)ccc(C(=O)Nc2nnc(C)o2)c1F [1-397 (R-configuration)]
Digitaria sanguinahs (activity level) (Digitaria sanguinalis; Table 3, dose 125 g a.i./ha): 5 (Level 5: growth control rate is above 85%) | Echinochloa crusgali (activity level) (Echinochloa crusgalli; Table 3, dose 125 g a.i./ha): 5 (Level 5: growth control rate is above 85%) | Setaria viridis (activity level) (Setaria viridis; Table 3, dose 125 g a.i./ha): 5 (Level 5: growth control rate is above 85%)

C/C=C/C[S@@+]([O-])c1c(C(F)(F)F)ccc(C(=O)Nc2nnc(C)o2)c1F [1-398 (R-configuration)]
Digitaria sanguinahs (activity level) (Digitaria sanguinalis; Table 3, dose 250 g a.i./ha): 5 (Level 5: growth control rate is above 85%) | Echinochloa crusgali (activity level) (Echinochloa crusgalli; Table 3, dose 250 g a.i./ha): 5 (Level 5: growth control rate is above 85%) | Setaria viridis (activity level) (Setaria viridis; Table 3, dose 250 g a.i./ha): 5 (Level 5: growth control rate is above 85%)

C#CCC[S@@+]([O-])c1c(C(F)(F)F)ccc(C(=O)Nc2nnc(C)o2)c1F [1-401 (R-configuration)]
Digitaria sanguinahs (activity level) (Digitaria sanguinalis; Table 3, dose 500 g a.i./ha): 5 (Level 5: growth control rate is above 85%) | Echinochloa crusgali (activity level) (Echinochloa crusgalli; Table 3, dose 500 g a.i./ha): 5 (Level 5: growth control rate is above 85%) | Setaria viridis (activity level) (Setaria viridis; Table 3, dose 500 g a.i./ha): 5 (Level 5: growth control rate is above 85%)

CC#CC[S@+]([O-])c1c(C(F)(F)F)ccc(C(=O)Nc2nnc(C)o2)c1F [1-402 (R-configuration)]
Digitaria sanguinahs (activity level) (Digitaria sanguinalis; Table 3, dose 500 g a.i./ha): 5 (Level 5: growth control rate is above 85%) | Echinochloa crusgali (activity level) (Echinochloa crusgalli; Table 3, dose 500 g a.i./ha): 5 (Level 5: growth control rate is above 85%) | Setaria viridis (activity level) (Setaria viridis; Table 3, dose 500 g a.i./ha): 5 (Level 5: growth control rate is above 85%)

Cc1nnc(NC(=O)c2ccc(C(F)(F)F)c([S@@+]([O-])CC(C)F)c2F)o1 (stereo partly drawn) [1-404 (R-configuration)]
Digitaria sanguinahs (activity level) (Digitaria sanguinalis; Table 3, dose 60 g a.i./ha): 5 (Level 5: growth control rate is above 85%) | Echinochloa crusgali (activity level) (Echinochloa crusgalli; Table 3, dose 60 g a.i./ha): 5 (Level 5: growth control rate is above 85%) | Setaria viridis (activity level) (Setaria viridis; Table 3, dose 60 g a.i./ha): 5 (Level 5: growth control rate is above 85%)

Cc1nnc(NC(=O)c2ccc(C(F)(F)F)c([S@@+]([O-])CCC(F)F)c2F)o1 [1-405 (R-configuration)]
Digitaria sanguinahs (activity level) (Digitaria sanguinalis; Table 3, dose 125 g a.i./ha): 5 (Level 5: growth control rate is above 85%) | Echinochloa crusgali (activity level) (Echinochloa crusgalli; Table 3, dose 125 g a.i./ha): 5 (Level 5: growth control rate is above 85%) | Setaria viridis (activity level) (Setaria viridis; Table 3, dose 125 g a.i./ha): 5 (Level 5: growth control rate is above 85%)

Cc1nnc(NC(=O)c2ccc(C(F)(F)F)c([S@@+]([O-])CCCC(F)(F)F)c2F)o1 [1-411 (R-configuration)]
Digitaria sanguinahs (activity level) (Digitaria sanguinalis; Table 3, dose 250 g a.i./ha): 5 (Level 5: growth control rate is above 85%) | Echinochloa crusgali (activity level) (Echinochloa crusgalli; Table 3, dose 250 g a.i./ha): 5 (Level 5: growth control rate is above 85%) | Setaria viridis (activity level) (Setaria viridis; Table 3, dose 250 g a.i./ha): 5 (Level 5: growth control rate is above 85%)

Cc1nnc(NC(=O)c2ccc(C(F)(F)F)c([S@+]([O-])CCC(F)(F)C(F)(F)F)c2F)o1 [1-412 (R-configuration)]
Digitaria sanguinahs (activity level) (Digitaria sanguinalis; Table 3, dose 500 g a.i./ha): 5 (Level 5: growth control rate is above 85%) | Echinochloa crusgali (activity level) (Echinochloa crusgalli; Table 3, dose 500 g a.i./ha): 5 (Level 5: growth control rate is above 85%) | Setaria viridis (activity level) (Setaria viridis; Table 3, dose 500 g a.i./ha): 5 (Level 5: growth control rate is above 85%)

Cc1nnc(NC(=O)c2ccc(C(F)(F)F)c([S@@+]([O-])CCC(F)(C(F)(F)F)C(F)(F)F)c2F)o1 [1-413 (R-configuration)]
Digitaria sanguinahs (activity level) (Digitaria sanguinalis; Table 3, dose 500 g a.i./ha): 5 (Level 5: growth control rate is above 85%) | Echinochloa crusgali (activity level) (Echinochloa crusgalli; Table 3, dose 500 g a.i./ha): 5 (Level 5: growth control rate is above 85%) | Setaria viridis (activity level) (Setaria viridis; Table 3, dose 500 g a.i./ha): 5 (Level 5: growth control rate is above 85%)

Cc1nnc(NC(=O)c2ccc(C(F)(F)F)c([S@@+]([O-])CCC#N)c2F)o1 [1-427 (R-configuration)]
Digitaria sanguinahs (activity level) (Digitaria sanguinalis; Table 3, dose 500 g a.i./ha): 5 (Level 5: growth control rate is above 85%) | Echinochloa crusgali (activity level) (Echinochloa crusgalli; Table 3, dose 500 g a.i./ha): 5 (Level 5: growth control rate is above 85%) | Setaria viridis (activity level) (Setaria viridis; Table 3, dose 500 g a.i./ha): 5 (Level 5: growth control rate is above 85%)

Cc1nnc(NC(=O)c2ccc(C(F)(F)F)c([S@@+]([O-])CCCC#N)c2F)o1 [1-428 (R-configuration)]
Digitaria sanguinahs (activity level) (Digitaria sanguinalis; Table 3, dose 500 g a.i./ha): 5 (Level 5: growth control rate is above 85%) | Echinochloa crusgali (activity level) (Echinochloa crusgalli; Table 3, dose 500 g a.i./ha): 5 (Level 5: growth control rate is above 85%) | Setaria viridis (activity level) (Setaria viridis; Table 3, dose 500 g a.i./ha): 5 (Level 5: growth control rate is above 85%)

Cc1nnc(NC(=O)c2ccc(C(F)(F)F)c([S@@+]([O-])CCO)c2F)o1 [1-429 (R-configuration)]
Digitaria sanguinahs (activity level) (Digitaria sanguinalis; Table 3, dose 500 g a.i./ha): 5 (Level 5: growth control rate is above 85%) | Echinochloa crusgali (activity level) (Echinochloa crusgalli; Table 3, dose 500 g a.i./ha): 5 (Level 5: growth control rate is above 85%) | Setaria viridis (activity level) (Setaria viridis; Table 3, dose 500 g a.i./ha): 5 (Level 5: growth control rate is above 85%)
